The Deep4Chem optical property database
Values belong to the compound of their own block, whether it stands above or below them.

Assay: photoluminescence quantum yield (fraction); solvent given as SMILES

SMILES: COc1cc(OC)cc(C2=[O+][B-](F)(F)OC(c3cccs3)=C2)c1
photoluminescence quantum yield (in CC#N): 0.002
photoluminescence quantum yield (in CC(C)=O): 0.01
photoluminescence quantum yield (in CCCCCC): 0.16
photoluminescence quantum yield (in Cc1ccccc1): 0.14
photoluminescence quantum yield (in ClCCl): 0.04

SMILES: CC(C)(C)c1cc2c(c(C(C)(C)C)c1)O[B-]1(c3ccc([B-]45OC(c6ccccc6)=N[N+]4=Cc4cc(C(C)(C)C)cc(C(C)(C)C)c4O5)cc3)OC(c3ccccc3)=N[N+]1=C2 (configuration not stated)
photoluminescence quantum yield (in C1CCOC1): 0.001

SMILES: CC(C)(C)/C=C/C1=[N+]2C(=C(c3c4ccccc4cc4ccccc34)c3ccc(/C=C/C(C)(C)C)n3[B-]2(F)F)C=C1
photoluminescence quantum yield (in ClC(Cl)Cl): 0.58

SMILES: Fc1c(F)c(-n2c3ccccc3c3ccccc32)c(F)c(-n2c3ccccc3c3ccccc32)c1-c1nnc(-c2ccccc2)o1
photoluminescence quantum yield (in Cc1ccccc1): 0.08

SMILES: Cn1c(=O)cc(C(=O)c2ccccc2)c2sc(-c3ccc(C(F)(F)F)cc3)cc21
photoluminescence quantum yield (in CC#N): 0.8
photoluminescence quantum yield (in ClCCl): 0.82

SMILES: Brc1cnc(-c2ccc(N(c3ccccc3)c3ccccc3)cc2)s1
photoluminescence quantum yield (in CO): 0.04

SMILES: COc1ccc(-c2cc3ccccc3p2-c2ccccc2)cc1 (configuration not stated)
photoluminescence quantum yield (in C1CCOC1): 0.09

SMILES: CCCCCCN1C(=O)c2cccc3c(-c4scc5c4OCCO5)ccc(c23)C1=O
photoluminescence quantum yield (in ClC(Cl)Cl): 0.61

SMILES: CN(C)c1ccc(/C=C/c2ccc([N+](=O)[O-])c(O)c2)cc1
photoluminescence quantum yield (in C1CCCCC1): 0.11
photoluminescence quantum yield (in C1COCCO1): 0.02
photoluminescence quantum yield (in CCCCCCC): 0.09
photoluminescence quantum yield (in Cc1ccccc1): 0.09

SMILES: C(=C\c1ccc(N(c2ccccc2)c2ccccc2)cc1)/c1ccc(/C=C/c2ccc(N(c3ccccc3)c3ccccc3)cc2)cc1
photoluminescence quantum yield (in Cc1ccccc1): 0.82

SMILES: CC1=CC(C)=[N+]2C1=C(c1ccc(-c3ccc(O)cc3)s1)c1c(C)cc(C)n1[B-]2(F)F
photoluminescence quantum yield (in Cc1ccccc1): 0.069

SMILES: COc1ccc2c3c(c4ccc(OC)cc4c2c1)=[N+]1C(=C(c2c(C)cc(C)cc2C)c2cc4c5ccc(OC)cc5c5cc(OC)ccc5c4n2[B-]1(F)F)C=3
photoluminescence quantum yield (in C1CCCCC1): 0.63
photoluminescence quantum yield (in C1CCOC1): 0.5
photoluminescence quantum yield (in CC#N): 0.33
photoluminescence quantum yield (in Cc1ccccc1): 0.54
photoluminescence quantum yield (in ClCCl): 0.53

SMILES: Cc1nc2c(c[n+]1C)CN1C(=O)N([C@H]3O[C@@H](CO)[C@H](O)[C@@H]3O)C=CC1=N2
photoluminescence quantum yield (in CC#N): 0.99
photoluminescence quantum yield (in CC(C)=O): 0.94
photoluminescence quantum yield (in CCCCO): 0.12
photoluminescence quantum yield (in CCCO): 0.11
photoluminescence quantum yield (in CCO): 0.14
photoluminescence quantum yield (in CO): 0.14
photoluminescence quantum yield (in O): 0.38
photoluminescence quantum yield (in [2H]OC): 0.15
photoluminescence quantum yield (in [2H]OCC): 0.14
photoluminescence quantum yield (in [2H]O[2H]): 0.42

SMILES: O=C(O)C1=C/C(=C/C=[N+]2/c3cc(O)c(C[C@@H]4O[C@H](CO)[C@@H](O)C(O)[C@H]4O)cc3C[C@H]2C(=O)O)C[C@H](C(=O)O)N1 (some centres not stated)
photoluminescence quantum yield (in CO): 0.0015
photoluminescence quantum yield (in O): 0.0007
photoluminescence quantum yield (in OCCO): 0.0041
photoluminescence quantum yield (in [2H]O[2H]): 0.001

SMILES: CCC1=C(C)C2=C(c3cc(C(=O)Cl)cc(C(=O)Cl)c3)c3c(C)c(CC)c(C)n3[B-](F)(F)[N+]2=C1C
photoluminescence quantum yield (in C1CCOC1): 0.61
photoluminescence quantum yield (in CC#N): 0.22
photoluminescence quantum yield (in CN(C)C=O): 0.39
photoluminescence quantum yield (in Cc1ccccc1): 0.57
photoluminescence quantum yield (in ClC(Cl)Cl): 0.53

SMILES: CCCCc1ccc2ccc3c(CCCC)ccc4ccc1c2c43
photoluminescence quantum yield (in CCCCCC): 0.47
photoluminescence quantum yield (in CO): 0.6
photoluminescence quantum yield (in ClCCl): 0.36

SMILES: c1ccc2c(c1)[nH]c1c3[nH]c4ccccc4c3c3nsnc3c21
photoluminescence quantum yield (in CN(C)C=O): 0.05
photoluminescence quantum yield (in Cc1ccccc1): 0.07
photoluminescence quantum yield (in ClCCl): 0.06

SMILES: CC(C)(C)c1ccc2c(c1)Sc1cc(C(C)(C)C)ccc1N2c1ccc2c(ccc3nc4ccc5cc(N6c7ccc(C(C)(C)C)cc7Sc7cc(C(C)(C)C)ccc76)ccc5c4nc32)c1
photoluminescence quantum yield (in C1CCCCC1): 0.11
photoluminescence quantum yield (in Cc1ccccc1): 0.04

SMILES: FC(F)(F)c1cc2n(n1)[B-]1(c3ccccc3Oc3ccccc31)[n+]1ccc3ccccc3c1-2
photoluminescence quantum yield (in C1CCCCC1): 0.0026
photoluminescence quantum yield (in Cc1ccccc1): 0.0027
photoluminescence quantum yield (in ClCCl): 0.0029

SMILES: N#Cc1c(-n2c3ccccc3c3ccccc32)c(-n2c3ccc(-c4ccccc4)cc3c3cc(-c4ccccc4)ccc32)c(-n2c3ccccc3c3ccccc32)c(-n2c3ccc(-c4ccccc4)cc3c3cc(-c4ccccc4)ccc32)c1-n1c2ccccc2c2ccccc21
photoluminescence quantum yield (in Cc1ccccc1): 0.81
photoluminescence quantum yield (in c1cc(-c2cccc(-n3c4ccccc4c4ccccc43)c2)cc(-n2c3ccccc3c3ccccc32)c1): 0.8

SMILES: c1ccc2c(c1)ncc1ccc3cnc4ccccc4c3c12
photoluminescence quantum yield (in CC#N): 0.14

SMILES: Cc1ccc2c3ccc(C)cc3c3cc4c(C)cc(=O)oc4cc3c2c1
photoluminescence quantum yield (in ClC(Cl)Cl): 0.11

SMILES: CC(=O)c1ccc2ccc3cccc4ccc1c2c34
photoluminescence quantum yield (in C1CCOC1): 0.002
photoluminescence quantum yield (in CC#N): 0.002
photoluminescence quantum yield (in CCCCCC): 0.002
photoluminescence quantum yield (in CCO): 0.012
photoluminescence quantum yield (in CN(C)C=O): 0.002
photoluminescence quantum yield (in CO): 0.014
photoluminescence quantum yield (in Cc1ccccc1): 0.003
photoluminescence quantum yield (in ClCCl): 0.002

SMILES: C[Si]1(C)c2ccccc2-c2cc3c(cc21)-c1ccccc1[Si]3(C)C
photoluminescence quantum yield (in ClCCl): 0.45

SMILES: CC1=[N+]2C(=C(c3ccc(C=O)cc3)c3ccc(C)n3[B-]2(F)F)C=C1c1cc2n(c1)[B-](F)(F)[N+]1=CC=CC1=C2c1c(C)cc(C)cc1C
photoluminescence quantum yield (in C1CCCCC1): 0.92
photoluminescence quantum yield (in CCOC(C)=O): 0.2

The next lines start with the values.

photoluminescence quantum yield (in ClC(Cl)Cl): 0.49
SMILES: C(#Cc1ccccc1)C(C#Cc1ccccc1)=Cc1ccc2cc(C=C(C#Cc3ccccc3)C#Cc3ccccc3)ccc2c1

photoluminescence quantum yield (in ClCCl): 0.08
SMILES: c1ccc2c(c1)sc1c3ccccc3c3ncncc3c21

photoluminescence quantum yield (in ClC(Cl)Cl): 0.042
SMILES: CCCCCCc1ccc(-n2c3c4cccc(OC)c4nc(-c4ccc(OC)cc4)c3c3c2c2c(-c4ccc(OC)cc4)nc4c(OC)cccc4c2n3-c2ccc(CCCCCC)cc2)cc1

photoluminescence quantum yield (in CC#N): 0.13
SMILES: CCN(CC)c1ccc(/C=N/CC/N=C/c2ccc(N(CC)CC)cc2O)c(O)c1

photoluminescence quantum yield (in CCO): 0.55
SMILES: COC(=O)CNC(=O)CCNc1cccc2ccccc12

photoluminescence quantum yield (in ClCCl): 0.81
SMILES: O=P1(c2ccccc2)C(c2ccc(N(c3ccccc3)c3ccccc3)cc2)=Cc2ccccc21 (configuration not stated)

photoluminescence quantum yield (in ClCCl): 0.19
SMILES: CN(C)c1ccc(N2c3sc4ccccc4c3Sc3c2sc2ccccc32)cc1

photoluminescence quantum yield (in ClCCl): 0.7
SMILES: Cn1nc(-c2ccc(C#N)cc2)cc1-c1ccccc1

photoluminescence quantum yield (in ClCCl): 0.022
SMILES: CCCCN1C(=O)c2ccc3c4ccc5c6c(cc(-c7ccc(C(=C(c8ccccc8)c8ccccc8)c8ccccc8)cc7)c(c7ccc(c2c37)C1=O)c64)C(=O)N(CCCC)C5=O

photoluminescence quantum yield (in C1CCOC1): 4e-05
SMILES: C1=Cc2ccccc2C(=Cc2ccc(C=C3c4ccccc4-c4ccccc43)cc2)c2ccccc21

photoluminescence quantum yield (in CCO): 0.11
SMILES: C[Si]1(C)C2=CC(=[N+]3CCC3)C=C(F)C2=Nc2c(F)cc(N3CCC3)cc21

photoluminescence quantum yield (in CN(C)C=O): 0.8
SMILES: CCCCCCCCCCCCCCCCCCN1C(=O)c2ccc3c4ccc5c6c(ccc(c7ccc(c2c37)C1=O)c64)C(=O)N(CCCCCCCCCCCCCCCCCC)C5=O

photoluminescence quantum yield (in ClC(Cl)Cl): 0.391
SMILES: CC(C)(C)c1ccc2oc3nc4oc5ccc(-n6c7ccccc7c(=O)c7ccccc76)cc5c4cc3c2c1

photoluminescence quantum yield (in ClC(Cl)Cl): 0.004
SMILES: COc1ccc(O[B-]2(Oc3ccc(OC)cc3)n3c(C)cc(C)c3C(c3ccc(I)cc3)=C3C(C)=CC(C)=[N+]32)cc1

photoluminescence quantum yield (in ClCCl): 0.383
SMILES: FC(F)(F)c1ccc(-n2c(-c3ccc(N(c4ccc(-c5ccc(N(c6ccc(-c7nc8c9ccccc9c9ccccc9c8n7-c7ccc(C(F)(F)F)cc7)cc6)c6ccc(-c7nc8c9ccccc9c9ccccc9c8n7-c7ccc(C(F)(F)F)cc7)cc6)cc5)cc4)c4ccc(-c5nc6c7ccccc7c7ccccc7c6n5-c5ccc(C(F)(F)F)cc5)cc4)cc3)nc3c4ccccc4c4ccccc4c32)cc1

photoluminescence quantum yield (in ClCCl): 0.31
SMILES: CCCCCCNC(=O)c1sc(-c2ccc(-c3cc(-c4ccc(C(C)(C)C)cc4)c(C(=O)NCCCCCC)s3)s2)cc1-c1ccc(C(C)(C)C)cc1

photoluminescence quantum yield (in CO): 0.55
SMILES: COc1ccc(-c2cc(B(c3c(C)cc(C)cc3C)c3c(C)cc(C)cc3C)c(-c3sc(-c4ccc(OC)cc4)cc3P(=O)(c3ccccc3)c3ccccc3)s2)cc1

photoluminescence quantum yield (in CC#N): 0.009
SMILES: C[C@@]12SC(Cl)=CC1=c1nc(-c3ccc(Cl)cc3)[nH]c1=C1C=C(Cl)S[C@]12C

photoluminescence quantum yield (in CO): 0.54
SMILES: Cc1cc(C)c(B(c2cc(-c3ccc(C(C)(C)C)cc3)sc2-c2sc(-c3ccc(C(C)(C)C)cc3)cc2P(=O)(c2ccccc2)c2ccccc2)c2c(C)cc(C)cc2C)c(C)c1

photoluminescence quantum yield (in CO): 0.14
SMILES: CC1(C)C(/C=C/C2=C(Oc3ccc(CCN=C=S)cc3Br)C(=C/C=C3/N(CCCS(=O)(=O)[O-])c4ccccc4C3(C)C)/CCC2)=[N+](CCCS(=O)(=O)[O-])c2ccccc21

photoluminescence quantum yield (in ClC(Cl)Cl): 0.74
SMILES: CC(C)c1cccc(C(C)C)c1-n1c(=O)c2ccc3c4ccc5c(=O)n(-c6c(C(C)C)cccc6C(C)C)c(=O)c6cc7c(-c8ccccc8)nc8cc(c1=O)c2c3c8c7c4c56

photoluminescence quantum yield (in ClC(Cl)Cl): 0.78
SMILES: N#Cc1c2oc3ccccc3oc2c(C#N)c2oc3ccccc3oc12

photoluminescence quantum yield (in ClC(Cl)Cl): 0.089
SMILES: CCCCCCN1C(=O)c2cccc3cc(/N=C\c4ccc(N5CCOCC5)cc4)cc(c23)C1=O

photoluminescence quantum yield (in C1CCOC1): 0.053
photoluminescence quantum yield (in ClC(Cl)Cl): 0.059
SMILES: CCCCCCCCC1(CCCCCCCC)c2cc3c(cc2-c2sc(-c4ccc(/C=C5\SC(SCC)=NC5=O)c5nsnc45)cc21)C(CCCCCCCC)(CCCCCCCC)c1cc(-c2ccc(/C=C4\SC(SCC)=NC4=O)c4nsnc24)sc1-3

photoluminescence quantum yield (in ClCCl): 0.00593
SMILES: COC(=O)C1=C(C(=O)OC)C2(c3ccccc3-c3c(C(=O)OC)cccc32)[C@@H](c2ccc(Cl)cc2)C=C2c3cc(OC)c(OC)cc3CCN21 (some centres not stated)

photoluminescence quantum yield (in CCCCCCC): 0.73
SMILES: c1ccc2cc3c(cc2c1)-c1cccc2c1c-3cc1ccccc12

photoluminescence quantum yield (in C1COCCO1): 0.192
SMILES: COC(=O)c1ccc(/C=C2\C=C(c3ccc(C#N)cc3)N(CC(C)C)C2=O)cc1

photoluminescence quantum yield (in ClC(Cl)Cl): 0.01
SMILES: O=Cc1ccc(C#CC(C#Cc2ccc(C=O)o2)=Cc2ccc(C=C(C#Cc3ccc(C=O)o3)C#Cc3ccc(C=O)o3)s2)o1

photoluminescence quantum yield (in ClCCl): 0.01
SMILES: Oc1ccc(Br)cc1-c1nc2c(c3c1-c1ccccc1CC3)-c1ccccc1CC2

photoluminescence quantum yield (in C1CCOC1): 0.2
photoluminescence quantum yield (in CO): 0.16
SMILES: CCOC(=O)C1=CN(c2ccccc2)C=C(C(=O)OCC)C1

photoluminescence quantum yield (in CCO): 0.019
SMILES: CCOC(=O)c1cc(C(=O)OCC)c2ccc(C)cc2n1
